Tested on: Human plasma stability, percent remaining
Experiment: compound stability in Homo sapiens plasma, ADME assay, biochemical, second set (AID 624420)
Settings: at 1 µM

Q: Which plasma stability does the source give for `c1ccc(CC2CCN(c3ncnc4sccc34)CC2)cc1` here?
A: Its plasma stability is 100%.

Q: With `C/C=C/Cn1c(SCCCc2ccccc2)nc2c1c(=O)[nH]c(=O)n2C` as the molecule, how does the plasma stability read?
A: The plasma stability was 98.5%.

Q: How did the plasma stability turn out when `Cc1cc(C)nc(-n2nc(C)c(Sc3ccc(F)cc3)c2N)n1` was run?
A: The plasma stability was 97%.

Q: With `COc1ccc(S(=O)(=O)N2CCN(S(=O)(=O)c3ccc4c(c3)OCCO4)CC2)cc1` as the molecule, how does the plasma stability read?
A: The plasma stability was 96.4%.

Q: `Cn1nnnc1Sc1ncnc2scc(-c3ccccc3)c12` was tested. Which plasma stability did it give?
A: Its plasma stability is 76.8%.

Q: For `CCCN1CNc2c(c(=O)[nH]c(=S)n2CCc2ccc(OC)c(OC)c2)C1`, which plasma stability is on record?
A: The plasma stability was 85.1%.

Q: For `Cc1ccc(C(=O)n2c3ccccc3c3ccccc32)cc1`, which plasma stability is on record?
A: Its plasma stability is 92%.

Q: How did the plasma stability turn out when `C=CCn1c(SCC(=O)c2ccc(O)c(O)c2)nnc1-c1ccccc1OC` was run?
A: Its plasma stability is 100%.

Q: For `N#C/C(=C\c1ccc([N+](=O)[O-])o1)c1nc2ccccc2[nH]1`, which plasma stability is on record?
A: The plasma stability was 16.9%.

Q: Which plasma stability does the source give for `NC(=O)C1CCN(c2nc(-c3ccc(Br)cc3)cs2)CC1` here?
A: The plasma stability was 96.8%.

Q: With `O=c1[nH]c2c(s1)C(c1cccnc1)C1C3CCC(C3)C1S2` (stereo not given) as the molecule, how does the plasma stability read?
A: Its plasma stability is 86.8%.

Q: `O=C(CSc1cccc2cccnc12)N1CCCC1` was tested. Which plasma stability did it give?
A: The plasma stability was 99.3%.

Q: With `O=S1(=O)Nc2c(ccc3cccnc23)-c2ccccc21` as the molecule, how does the plasma stability read?
A: Its plasma stability is 100%.

Q: For `COc1ccc(C2c3c(ncn(CCN4CCOCC4)c3=N)Oc3ccc4ccccc4c32)cc1OC` (stereo not given), which plasma stability is on record?
A: The plasma stability was 93.5%.

Q: Which plasma stability does the source give for `CCCN(CCC)CCNC(=O)C1CCN(Cc2nc(-c3ccc(Cl)cc3)oc2C)CC1` here?
A: The plasma stability was 100%.

Q: `COc1ccc(OC)c(-c2nnc3n2N=C(c2ccc(OC)c(OC)c2)CS3)c1` was tested. Which plasma stability did it give?
A: Its plasma stability is 100%.

Q: Which plasma stability does the source give for `c1ccc2c(Nc3nnc(-c4ccncc4)s3)cccc2c1` here?
A: Its plasma stability is 99.5%.

Q: How did the plasma stability turn out when `CC1CCCN(C(C(=O)Nc2ccc3c(c2)OCCO3)c2ccccc2)C1` (stereo not given) was run?
A: Its plasma stability is 100%.

Q: For `O=C(O)c1ccc(N2C(=O)/C(=C/c3ccc(-c4ccc([N+](=O)[O-])cc4)o3)C=C2c2ccccc2)cc1`, which plasma stability is on record?
A: The plasma stability was 87.3%.

Q: With `Cn1cnc([N+](=O)[O-])c1Sc1ncnc2nc[nH]c12` as the molecule, how does the plasma stability read?
A: Its plasma stability is 83.2%.

Q: `Brc1cc2c(cc1C1Nc3ccccc3C3C=CCC31)OCO2` (stereo not given) was tested. Which plasma stability did it give?
A: Its plasma stability is 97%.

Q: For `O=c1[nH]c(SCc2ccc(Cl)cc2)nc2c1CCC2`, which plasma stability is on record?
A: Its plasma stability is 100%.

Q: How did the plasma stability turn out when `O=C1CCCC2=C1C1(CCCC1)N=C(Nc1nc3ccccc3o1)N2` was run?
A: The plasma stability was 100%.

Q: `Cc1ccc(S(=O)(=O)NCc2ccc(C(=O)NCCN(Cc3ccccc3)C(C)C)cc2)cc1` was tested. Which plasma stability did it give?
A: Its plasma stability is 100%.

Q: Which plasma stability does the source give for `O=C(CCNS(=O)(=O)c1cccc2nsnc12)N1CCN(c2ccccn2)CC1` here?
A: The plasma stability was 91.2%.

Q: `Cc1ccc(NS(=O)(=O)c2ccc3c(c2)CCC(=O)N3)cc1C` was tested. Which plasma stability did it give?
A: The plasma stability was 100%.

Q: For `CC(C)C(=O)NC(c1ccco1)c1ccc2cccnc2c1O` (stereo not given), which plasma stability is on record?
A: Its plasma stability is 100%.

Q: Which plasma stability does the source give for `Cc1ccc(S(=O)(=O)n2c(N)nc3ccccc32)cc1` here?
A: Its plasma stability is 95.8%.

Q: Which plasma stability does the source give for `Cc1ccc(N2CCN(S(=O)(=O)N3CCCCC3)CC2)c(C)c1` here?
A: The plasma stability was 100%.

Q: For `COc1nc(-c2ccccc2)nnc1-c1ccccc1`, which plasma stability is on record?
A: The plasma stability was 100%.

Q: Which plasma stability does the source give for `CCCC(=O)Nc1cccc(NC(=O)c2ccccc2Br)c1` here?
A: Its plasma stability is 87.8%.

Q: `COc1ccc(OC)c(S(=O)(=O)Nc2cnc3ccccc3c2)c1` was tested. Which plasma stability did it give?
A: The plasma stability was 83%.

Q: With `CCN1CCN(c2nc3ccccc3nc2C(C#N)C(=O)OC2CCCCC2)CC1` (stereo not given) as the molecule, how does the plasma stability read?
A: Its plasma stability is 100%.

Q: With `COc1ccc(C2CC(c3ccccc3)=NN2c2ccc(S(N)(=O)=O)cc2)cc1` (stereo not given) as the molecule, how does the plasma stability read?
A: The plasma stability was 79.5%.

Q: `COc1ccc(N(C(=O)CCl)C(C(=O)NCCc2ccccc2)c2cccs2)cc1Cl` (stereo not given) was tested. Which plasma stability did it give?
A: Its plasma stability is 68.2%.

Q: `CSc1nc(-c2ccc(C)cc2)nc(C(Cl)Cl)n1` was tested. Which plasma stability did it give?
A: Its plasma stability is 81.9%.

Q: `Brc1ccc2c(c1)CN1CCCC1=N2` was tested. Which plasma stability did it give?
A: Its plasma stability is 100%.

Q: Which plasma stability does the source give for `O=C1NCCCc2c1oc1ccc(O)cc21` here?
A: Its plasma stability is 95.7%.

Q: How did the plasma stability turn out when `CCOc1ccc(NC(=S)N2CCC(C(O)(c3ccccc3)c3ccccc3)CC2)cc1` was run?
A: The plasma stability was 63.7%.

Q: `CN(C)C1=C(Cl)C(=O)N(c2ccc(Cl)c(Cl)c2)C1=O` was tested. Which plasma stability did it give?
A: The plasma stability was 0.83%.

Q: `O=C(c1ccccn1)N(Cc1cccs1)C1(C(=O)NC2CCCCC2)CCCCC1` was tested. Which plasma stability did it give?
A: Its plasma stability is 96.7%.

Q: With `Cc1ccccc1N1CCN(c2ncnc3c2cnn3Cc2ccc(Cl)cc2)CC1` as the molecule, how does the plasma stability read?
A: Its plasma stability is 88.2%.

Q: Which plasma stability does the source give for `Cc1cc(C(=O)CN2C(=O)CCC2=O)c(C)n1Cc1ccccc1` here?
A: Its plasma stability is 84%.

Q: `COc1ccc(Sc2ccc(NC(=O)c3ccccc3Cl)cc2C#N)cc1` was tested. Which plasma stability did it give?
A: Its plasma stability is 91.9%.

Q: How did the plasma stability turn out when `Cc1ccc(NC(=O)CCC(=O)N/N=C/c2ccc([N+](=O)[O-])o2)cc1C` was run?
A: Its plasma stability is 67%.

Q: Which plasma stability does the source give for `Cc1cc(-c2nnc3n2CCCCC3)c(C)n1-c1ccccc1` here?
A: The plasma stability was 87.9%.

Q: With `Cc1nc(SCc2nc3ccccc3[nH]2)c2oc3ccccc3c2n1` as the molecule, how does the plasma stability read?
A: The plasma stability was 88%.

Q: For `Cc1cc(C)n(-c2nc(NCCCO)c3c4c(sc3n2)CCCC4)n1`, which plasma stability is on record?
A: Its plasma stability is 88.5%.

Q: Which plasma stability does the source give for `O=C(O)c1ccccc1OCc1ccccc1Br` here?
A: Its plasma stability is 76.7%.

Q: For `CC[C@H]1CN2CCc3cc(OC)c(OC)cc3[C@@H]2C[C@@H]1C[C@H]1NCCc2cc(OC)c(OC)cc21`, which plasma stability is on record?
A: The plasma stability was 91.5%.

Q: Which plasma stability does the source give for `CCc1oc2ccccc2c1C(=O)c1cc(Br)c(O)c(Br)c1` here?
A: Its plasma stability is 94.6%.

Q: How did the plasma stability turn out when `CN(C)c1nc(N)nc(CSc2nnnn2-c2cccc3ccccc23)n1` was run?
A: Its plasma stability is 100%.

Q: For `O=C(COc1ccccc1Br)NCCc1nc2ccccc2[nH]1`, which plasma stability is on record?
A: Its plasma stability is 88%.

Q: With `Cc1ccnc(NC(=O)CCCOc2cc(=O)n(C)c3ccccc23)c1` as the molecule, how does the plasma stability read?
A: The plasma stability was 100%.

Q: `Cc1ccc(C)c(OCCn2cc(C(=O)O)c3ccccc32)c1` was tested. Which plasma stability did it give?
A: Its plasma stability is 91.6%.

Q: With `O=C(O)CCC(NS(=O)(=O)c1ccc(-c2ccccc2)cc1)C(=O)O` (stereo not given) as the molecule, how does the plasma stability read?
A: Its plasma stability is 57%.

Q: For `CCCc1nc2c(=O)n(C)c(=O)nc-2n(C)n1`, which plasma stability is on record?
A: The plasma stability was 1.52%.

Q: For `N#Cc1ccccc1CSc1nc2ncc(Br)cc2[nH]1`, which plasma stability is on record?
A: The plasma stability was 95.4%.

Q: `Cc1cccc(-n2cnc3cc(C(=O)N4CCCCC4)ccc32)c1` was tested. Which plasma stability did it give?
A: The plasma stability was 87%.

Q: How did the plasma stability turn out when `COc1ccc(CSc2nc(C)cc(=O)[nH]2)cc1` was run?
A: The plasma stability was 100%.

Q: With `CC(=O)c1ccc(N2CCN(S(=O)(=O)c3ccc4c(c3)CC(=O)N4)CC2)cc1` as the molecule, how does the plasma stability read?
A: The plasma stability was 80.6%.

Q: With `O=[N+]([O-])c1ccc(CN2CCOCCOCCN(Cc3ccc([N+](=O)[O-])cc3)CCOCC2)cc1` as the molecule, how does the plasma stability read?
A: Its plasma stability is 98.3%.

Q: With `O=c1c2ccccc2[se]n1-c1ccccc1` as the molecule, how does the plasma stability read?
A: Its plasma stability is 100%.

Q: For `CCCc1cc(C(=O)N(C2CCCCC2)C2CCCCC2)no1`, which plasma stability is on record?
A: The plasma stability was 67.4%.

Q: With `O=C(COC(=O)C12CC3CC(CC(C3)C1)C2)NCc1ccco1` as the molecule, how does the plasma stability read?
A: The plasma stability was 58.7%.

Q: `Cc1cc2c(s1)c1cnn(Cc3ccccc3F)c(=O)c1n2C` was tested. Which plasma stability did it give?
A: Its plasma stability is 82.8%.

Q: How did the plasma stability turn out when `CCc1nnc(NC(=O)c2ccc(NS(=O)(=O)c3ccccc3)cc2)s1` was run?
A: Its plasma stability is 100%.

Q: How did the plasma stability turn out when `O=S(=O)(NC1CCCCC1N1CCOCC1)c1ccc(Cl)cc1` (stereo not given) was run?
A: The plasma stability was 100%.

Q: How did the plasma stability turn out when `COc1ccc(CNCc2cccc3ccccc23)cc1` was run?
A: Its plasma stability is 92.1%.

Q: `COC(=O)c1ccccc1NC(=O)c1ccc(F)cc1` was tested. Which plasma stability did it give?
A: Its plasma stability is 80%.

Q: For `CCOc1ccc(-c2nc(-c3ccncc3)no2)cc1OCC`, which plasma stability is on record?
A: Its plasma stability is 100%.

Q: Which plasma stability does the source give for `O=C1C2CC=CCC2C(=O)N1c1n[nH]c(-c2ccccc2)n1` (stereo not given) here?
A: The plasma stability was 69.8%.

Q: Which plasma stability does the source give for `CCCOc1ccc(-c2nc(OC)c3ccccc3n2)cc1` here?
A: Its plasma stability is 100%.

Q: For `CCCn1ncc(CN2CCCC(C(=O)c3cccc(OC(C)C)c3)C2)c1C` (stereo not given), which plasma stability is on record?
A: Its plasma stability is 100%.

Q: `COc1cccc(-c2nc(-c3ccc(NC(=O)Cc4ccccc4OC)cc3)no2)c1` was tested. Which plasma stability did it give?
A: Its plasma stability is 100%.

Q: For `Cc1ccc(-n2c(N)c(C#N)c(-c3ccccc3)c(C#N)c2=O)cc1`, which plasma stability is on record?
A: Its plasma stability is 99.8%.

Q: With `Cc1ccc(C)c(NS(=O)(=O)c2cc(C(=O)Nc3ccccc3-c3ccccc3)ccc2Cl)c1` as the molecule, how does the plasma stability read?
A: Its plasma stability is 100%.

Q: For `CS(=O)(=O)c1ccc(C(=O)OCC(=O)NC23CC4CC(CC(C4)C2)C3)cc1[N+](=O)[O-]`, which plasma stability is on record?
A: The plasma stability was 0.07%.

Q: `Cc1ccc(S(=O)(=O)C(c2ccccc2)c2c(C)noc2C)cc1` (stereo not given) was tested. Which plasma stability did it give?
A: The plasma stability was 91.9%.

Q: With `O=C(O)c1cccnc1SCCc1ccccc1` as the molecule, how does the plasma stability read?
A: The plasma stability was 88.3%.

Q: `COc1ccccc1N(/N=C1\Sc2ccccc2C1=O)C(C)=O` was tested. Which plasma stability did it give?
A: The plasma stability was 94.1%.

Q: For `c1ccc(-c2nnc(N3CCOCC3)nc2-c2ccccc2)cc1`, which plasma stability is on record?
A: Its plasma stability is 100%.

Q: How did the plasma stability turn out when `COc1ccc(S(=O)(=O)n2nc(OC(=O)c3ccccc3)cc2N)cc1` was run?
A: The plasma stability was 0.3%.

Q: With `CCOC(=O)C(C)Oc1cccc2c(=O)n(CC(=O)Nc3ccc4c(c3)OCCO4)ccc12` (stereo not given) as the molecule, how does the plasma stability read?
A: The plasma stability was 37.7%.

Q: How did the plasma stability turn out when `CN(C)c1oc(-c2ccc(OCc3ccc(Cl)cc3)cc2)nc1C#N` was run?
A: The plasma stability was 94.3%.
